According to US20060079512A1, “Dibenzodiazepinone analogues, processes for their production and their use as pharmaceuticals” (Ecopia BioSciences, Inc., priority 2003, published 2006):
Read-outs that look alike come from different tables or passages of the source.

Assays:
Assay type in all cases: cell-based
[1] = test system: PC-3 (prostate adenocarcinoma); assay: In vitro cytotoxic activity (GI50), method (a), propidium iodide; settings: read-out: PC-3 (GI50 μM)
Protocol: (§1) Compounds were dissolved at 10 mM in DMSO. Dilution in vehicle to concentrations of 30, 10, 3, 1 and 0.3 μM were prepared immediately before assays. Depending on the cell line's growth characteristics, 4000-10000 cells were plated in two 96-wells pates (day 0) and incubated for 16 hours. The following day, propidium iodide was added to one of the two plates and fluorescence measured (Tz). Test compounds were added to the second plate, as well as vehicle control, and cells further incubated for 96 hours. Each compound was tested at each concentration and in triplicates. The equivalent cell number was determined after adding propidium iodide by measuring the signal by fluorescence (C for control).

[2] = test system: HT-29 (colorectal carcinoma); assay: as above; settings: read-out: HT-29 (GI50 μM)
Protocol: as §1

SF268 (CNS) = assay: as above; settings: read-out: SF-268 (GI50 μM)
Protocol: as §1

[3] = test system: MDA-MB-231 (mammary gland adenocarcinoma); assay: as above; settings: read-out: MDA-MB-231 (GI50 μM)
Protocol: as §1

[4] = test system: HT-29, SF-268, PC-3, MDA-MB-231; assay: Average GI50 over the four cell lines, method (a); settings: for anticancer activity compared with Compound 1: four cell lines; for GI50: read-out: Average (GI50 μM)
Protocol: as §1

[5] = Homo sapiens, HT-29, method (a), 96 hours
[6] = Homo sapiens, SF-268, method (a), 96 hours
[7] = Homo sapiens, MDA-MB-231, method (a), 96 hours
[8] = method (a), values > 30 not considered

GI50 [4, 8]	Structure (SMILES)	GI50 ([1]; method (a), 96 hours)	GI50 [2, 5]	GI50 (SF268 (CNS); [6])	GI50 [3, 7]	anticancer activity compared with Compound 1 ([4]; method (a))	GI50 ([2]; method (a), 96 hours)	GI50 (SF268 (CNS); method (a), 96 hours)	GI50 ([3]; method (a), 96 hours)	GI50 ([1]; 96 h)	GI50 ([2]; Homo sapiens, HT-29, 96 h)	GI50 (SF268 (CNS); Homo sapiens, SF-268, 96 h)	GI50 ([3]; Homo sapiens, MDA-MB-231, 96 h)	GI50 [4]
1.62 µM	CC(C)CCCC(C)CCCC(C)CCN1C(=O)c2cccc(O)c2Nc2c(O)cc(O)cc21 (stereo not shown) [Compound 46, 10-(3,7,11-trimethyldodecyl)-4,6,8-trihydroxy-5,10-dihydro-dibenzo[b,e][1,4]diazepin-11-one]	0.9 µM	4.26 µM	0.72 µM	0.59 µM	generally more active than Compound 1								
16 µM	COc1cc(O)cc2c1Nc1c(O)cccc1C(=O)N2C/C=C(\C)CC/C=C(\C)CCC=C(C)C [Compound 5, 10-farnesyl-4,8-dihydroxy-6-methoxy-5,10-dihydro-dibenzo[b,e][1,4]diazepin-11-one]	15.6 µM	14.4 µM	13.4 µM	20.5 µM									
	CC(=O)Oc1cc(O)c2c(c1)N(CC=C(C)CCC=C(C)CCC=C(C)C)C(=O)c1cccc(OC(C)=O)c1N2 [Compound 11, 4,8-diacetoxy-10-farnesyl-6-hydroxy-5,10-dihydro-dibenzo[b,e][1,4]diazepin-11-one]									5.35 µM	16 µM	5.79 µM	7.72 µM	8.72 µM
	CC(=O)Oc1cccc2c1Nc1c(OC(C)=O)cc(O)cc1N(CC=C(C)CCC=C(C)CCC=C(C)C)C2=O [Compound 10, 4,6-diacetoxy-10-farnesyl-8-hydroxy-5,10-dihydro-dibenzo[b,e][1,4]diazepin-11-one]									1.35 µM	13 µM	2.02 µM	1.55 µM	4.48 µM
16.1 µM	COc1cccc2c1Nc1c(OC)cc(O)cc1N(CC=C(C)CCC=C(C)CCC=C(C)C)C2=O [Compound 7, 10-farnesyl-8-hydroxy-4,6-dimethoxy-5,10-dihydro-dibenzo[b,e][1,4]diazepin-11-one]	14.6 µM	14.1 µM	18.5 µM	17.4 µM									
6.18 µM	CC(C)=CCC/C(C)=C/CC/C(C)=C/CN1C(=O)c2cccc(O)c2N(Cc2ccccc2)c2c(O)cc(O)cc21 [Compound 3, 5-benzyl-10-farnesyl-4,6,8-trihydroxy-5,10-dihydro-dibenzo[b,e][1,4]diazepin-11-one]	5.36 µM	7.3 µM	5.73 µM	6.32 µM									
20.8 µM	COc1cc(OC)c2c(c1)N(C/C=C(\C)CC/C=C(\C)CCC=C(C)C)C(=O)c1cccc(O)c1N2 [Compound 6, 10-farnesyl-4-hydroxy-6,8-dimethoxy-5,10-dihydro-dibenzo[b,e][1,4]diazepin-11-one]	19 µM	> 30 µM	18.9 µM	24.6 µM									
9.2 µM	COc1cccc2c1Nc1c(O)cc(O)cc1N(C/C=C(\C)CC/C=C(\C)CCC=C(C)C)C2=O [Compound 4, 10-farnesyl-6,8-dihydroxy-4-methoxy-5,10-dihydro-dibenzo[b,e][1,4]diazepin-11-one]	5.86 µM	14.7 µM	4.97 µM	11.3 µM									
	CC(=O)Oc1cc(OC(C)=O)c2c(c1)N(CC=C(C)CCC=C(C)CCC=C(C)C)C(=O)c1cccc(O)c1N2 [Compound 9, 6,8-diacetoxy-10-farnesyl-4-hydroxy-5,10-dihydro-dibenzo[b,e][1,4]diazepin-11-one]									1.44 µM	12.6 µM	1.88 µM	2.48 µM	4.6 µM

Structure (SMILES)	GI50 [4, 8]	GI50 ([1]; method (a), 96 hours)	GI50 [2, 5]	GI50 (SF268 (CNS); [6])	GI50 [3, 7]	anticancer activity compared with Compound 1 ([4]; method (a))	GI50 ([2]; method (a), 96 hours)	GI50 (SF268 (CNS); method (a), 96 hours)	GI50 ([3]; method (a), 96 hours)	GI50 ([1]; 96 h)	GI50 ([2]; Homo sapiens, HT-29, 96 h)	GI50 (SF268 (CNS); Homo sapiens, SF-268, 96 h)	GI50 ([3]; Homo sapiens, MDA-MB-231, 96 h)	GI50 [4]
CC(=O)Oc1cc(OC(C)=O)c2c(c1)N(CC=C(C)CCC=C(C)CCC=C(C)C)C(=O)c1cccc(OC(C)=O)c1N2 [Compound 12, 4,6,8-triacetoxy-10-farnesyl-5,10-dihydro-dibenzo[b,e][1,4]diazepin-i 1-one]	3.82 µM	1.2 µM				generally more active than Compound 1	9.33 µM	1.95 µM	2.79 µM					
